Experimental data reported in patent US11352400B2, “PI3K gamma inhibitor peptide for treatment of respiratory system diseases” (Kither Biotech S.r.I., priority 2014, dated 2022).

Assays:
PDE4D = experiment: Phosphodiesterase activity in anti-PDE4D immunoprecipitates from treated tracheal smooth muscle cells; assay type: cell-based, mouse; details: tracheal smooth muscle cells of wild-type mice (PI3Kγ+/+); 50 μM, 30 minutes
Method: (§1) For protein extraction from murine tracheal smooth muscle cells (mTSMCs) and human bronchial smooth muscle cells (hBSMCs), cells were treated with the indicated drugs/peptides and immediately lysed in cold lysis buffer containing 120 mmol/L NaCl, 50 mmol/L Tris-HCl (pH 8.0), complete protease inhibitors (Roche Applied Science, Indianapolis, Ind.) and phosphatase inhibitors (50 mmol/L sodium fluoride, 1 mmol/L sodium orthovanadate and 10 mmol/L sodium pyrophosphate). After 30 min of incubation on ice, lysates were centrifuged at 13000 rpm for 10 min at 4° C. and used for either Western blotting or subjected to immunoprecipitation and measurements of phosphodiesterase activity. […]
(§2) Phosphodiesterase activity in immunoprecipitates was measured according to the two-step method of Thompson and Appleman, as previously described (2), with minor modifications. […] The amount of radiolabeled adenosine in the supernatant was quantified by scintillation counting (Ultima Gold liquid scintillation from Perkin Elmer, Waltham, Mass.).
(§3) Murine tracheal smooth muscle cells were cultured from explants of trachea using previously described methods with modifications. […] More than 90% of these cells were smooth muscle cells, as determined by immunofluorescence performed with an antibody specific for smooth muscle actin. […]

PDE4B = experiment: Phosphodiesterase activity in anti-PDE4B immunoprecipitates from treated tracheal smooth muscle cells; assay type: cell-based, mouse; details: tracheal smooth muscle cells of wild-type mice (PI3Kγ+/+); 50 μM, 30 minutes
Method: as §1, §2, §3

[1] = tested on: ovalbumin (OVA)-induced asthma mice; experiment: Airway hyperresponsiveness (tidal volume) in ovalbumin-induced asthma model; assay type: in vivo, BALB/C mice; details: OVA-sensitized mice; 150 μg intra-tracheal, 30 minutes before methacholine; vs PBS or P1
Method: Ovalbumin (100 μg) (OVA, Sigma-Aldrich, St. Louis, Mo.), complexed with aluminum potassium sulfate (1 mg, alum) was administered intraperitoneally (i.p.) on days 1 and 14, and intra-nasally (i.n.) (50 μg OVA in 50 μl PBS) on days 14, 25, 26, and 27. Control mice received i.p. injections of alum and i.n. injections of PBS only. Airway hyperreactivity induced by inhaled methacholine was measured at 24 hours after the final dose of OVA (Day 28).
Method 2: Mice sensitized to ovalbumin were treated, by intra-tracheal instillation, with 70 μL of phosphate-buffered saline solution (PBS) containing vehicle or 150 μg of the Trojan peptide derived from PI3Kγ or equimolar amounts of P1 control peptide. Airway hyperresponsiveness was assessed at 30 minutes after the treatment according to a previously published protocol (6). […] The airway opening pressure (Pao), proximal to the endotracheal tube, and the pressure inside the chamber were measured with pressure transducers (Special Instruments, Digima Clic; Nordlingen, Germany). Gas flow was measured with a pneumotachograph (Special Instruments, Digima Clic; Nordlingen, Germany). Tidal volume was calculated as the integral of the flow signal. Variables of mechanical ventilation were recorded using the ICU-Lab software (KleisTEK Advanced Electronic Systems, Bari, Italy). […]

RQIKIWFQNRRMKWKKGKATHRSPGQIHLVQRHPPSEESQAF (fusion peptide comprising SEQ ID No.1 and SEQ ID No.3) [Trojan peptide derived from PI3Kγ]
catalytic activity of PDE4D (PDE4D): significantly reduced
catalytic activity of PDE4B (PDE4B): significantly reduced
reduction of the tidal volume induced by methacholine [1]: significantly attenuated
